Here are results for six compounds from PMC3814989, “Development of a Fluorescence Polarization Based High-Throughput Assay to Identify Casitas B-Lineage Lymphoma RING Domain Regulators” (PLoS ONE, 2013).

Broadly, the IC50 is the midpoint of a concentration-inhibition curve.

The assay has as its target T1, c-Cbl (RING) protein (Homo sapiens, UniProt P22681).
T1 construct: c-Cbl (RING) protein including the linker and RING domain (codon 358–457) was tagged with glutathione S-transferase (GST); GST; made in house
T1 sequence (P22681 358-457): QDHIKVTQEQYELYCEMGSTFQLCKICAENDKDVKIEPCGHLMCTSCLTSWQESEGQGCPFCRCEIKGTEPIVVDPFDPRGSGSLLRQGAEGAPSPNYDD
As to the kind of experiment: Competitive FP assay/screen: displacement of probe 1 from c-Cbl (RING) protein. Type of assay: binding. Conditions: for Outcome in detergent-present screen: detergent-present screen (0.01% Triton X-100); for Hit verification outcome: hits from detergent-free screen, more extensive competitive binding assays. As for the experimental part: Assays were carried out in detergent-free buffer system (PBS, pH = 7.4) or detergent-present buffer system (0.01% Triton X-100 in PBS, pH = 7.4). All FP measurements were made on 384-well, low-volume, black, v-bottom polystyrene microplates (Corning, Shanghai, China) using the ZS-2 plate reader. The binding affinities of fluorescein-labeled peptides/regulators binding to c-Cbl (RING) protein were verified by titrating an increasing concentration of protein into a constant concentration of labeled peptides. […] The total fluorescence (TF) values were also measured. The change in polarization was graphed as a function of the log of the protein concentration, and the dissociation constant (Kd) and the change in mP (ΔmP) were obtained from the resulting sigmoidal curve. The concentrations of fluorescein-labeled peptide and proteins were optimized.
Unlabeled short peptide was titrated against the FITC-labeled peptide (100 nmol/L) and protein (3 µmol/L) mixture. Plates were incubated at room temperature for up to 3 hours or 30 min at different temperatures.
Master mixtures containing fluorescein-labeled probe and Cbl (RING) protein Cbl (RING) protein, 3 µmol/L and probe 1 at 100 nmol/L) in a reaction volume of 19 µl were prepared and loaded to plates. The library compounds (10 µmol/L – 0.078 µmol/L, half dilutions) were prepared separately and transferred into the assay plates. The first and last columns of each plate were used as positive and negative control wells. Wells containing the drug only were used as controls to detect auto-fluorescence of the compounds in the total fluorescence assay. After subtraction of the background signal, data was processed and the IC50 values were determined by non-linear least square fitting (four parameters) using SigmaPlot 11.0.
Hits were validated using the primary screening assay conditions in triplicate.

[1] abbreviates: primary screen, detergent-free system, 10 to 0.078 µmol/L, 5% DMSO, read-out: IC50 Primary screen DF.
Where [2] appears, read: primary screen, detergent-present system (0.01% Triton X-100), 10 to 0.078 µmol/L, 5% DMSO, read-out: IC50 Primary screen DP.
Setting [3] is: validated in triplicate, detergent-free system, read-out: IC50 Validated DF.
[4] abbreviates: validated in triplicate, detergent-present system (0.01% Triton X-100), NR: no dose response, read-out: IC50 Validated DP.

Like-named read-outs stand apart in the source and are kept apart here. Residues, ends and D or L forms follow the SMILES beside them.

As for `C[C@]1(O)C[C@@H](O)[C@@H]2C=CO[C@@H](O[C@@H]3O[C@H](CO)[C@@H](O)[C@H](O)[C@H]3O)[C@@H]21` [Leonuride], the IC50 is less than 5 µM (primary screen, detergent-free system, 10 to 0.078 µmol/L, 5% DMSO, listed as leonuride, read-out: IC50 Primary screen DF); 3.5 µM under setting [1]; 3.8 µM under setting [2]; 4.6 ± 0.8 µM under setting [3]; 4.5 ± 1.1 µM under setting [4].

For the compound `CO[C@]1(CC[C@@H](C)CO[C@@H]2O[C@H](CO)[C@@H](O)[C@H](O)[C@H]2O)O[C@H]2C[C@H]3[C@@H]4CC=C5C[C@@H](O[C@@H]6O[C@H](CO)[C@@H](O[C@@H]7O[C@@H](C)[C@H](O)[C@@H](O)[C@H]7O)[C@H](O)[C@H]6O[C@@H]6O[C@@H](C)[C@H](O)[C@@H](O)[C@H]6O)CC[C@]5(C)[C@H]4CC[C@]3(C)[C@H]2[C@@H]1C` [Methylprotodioscin], the IC50 under setting [1] was determined as 4.8 µM, the IC50 under setting [2] was 4 µM, the IC50 under setting [3] worked out at 4.2 ± 0.5 µM and the IC50 under setting [4] amounted to 4 ± 0.8 µM.

In the case of `CC(=O)N1CCC[C@H]1C(=O)N[C@@H](Cc1ccccc1)C(=O)N[C@@H](CCCCN)C(=O)N1CCC[C@H]1C(=O)N1CCC[C@H]1C(N)=O` [Peptide 1, Ac-PFKPP-NH2] (Ac-PFKPP-NH2), the half-maximal inhibitory concentration (IC50) by setting is: (detergent-free system, c-Cbl (RING) protein 3 µmol/L + 100 nmol/L probe 1, read-out: IC50, unlabeled peptide competing with probe 1) 1.05 ± 0.09 µM; (detergent-present system (0.01% Triton X-100), c-Cbl (RING) protein 3 µmol/L + 100 nmol/L probe 1, read-out: IC50, unlabeled peptide competing with probe 1) 1.06 ± 0.09 µM.

In the case of `CC(=O)N1CCC[C@H]1C(=O)N[C@@H](C)C(=O)N[C@@H](CCCCN)C(=O)N1CCC[C@H]1C(=O)N1CCC[C@H]1C(N)=O` [Peptide 2, Ac-PAKPP-NH2] (Ac-PAKPP-NH2), the “Effect of unlabeled peptide on FP values” (detergent-free system, c-Cbl (RING) protein 3 µmol/L + 100 nmol/L probe 1) is on record as “does not alter the FP values”.

On to `O=c1c(O)c(-c2ccc(O)c(O)c2)oc2cc(O)cc(O)c12` [Quercetin], for which the “Outcome in detergent-present screen” value is listed as “negative” and the Hit verification outcome is “false positive hits”.

On to Tehmaglutin, for which the “Outcome in detergent-present screen” value is on record as “negative” and the Hit verification outcome is “false positive hits”. The IC50 (primary screen, detergent-free system, 10 to 0.078 µmol/L, 5% DMSO, listed as tehmaglutin, read-out: IC50 Primary screen DF) is less than 5 µM. Also, the IC50 under setting [1] was 5 µM. Moreover, the IC50 under setting [2] was greater than 10 µM. Further, the IC50 under setting [3] was found to be 4.7 ± 0.4 µM. Also, the IC50 under setting [4] was greater than 10 µM.
